In doi:10.1101/2022.11.01.514793v1 (biorxiv, 2022):

Molecular target: T1, AdgB (Variovorax paradoxus, UniProt T1X8R6)
T1 sequence (T1X8R6 28-388 limits assumed): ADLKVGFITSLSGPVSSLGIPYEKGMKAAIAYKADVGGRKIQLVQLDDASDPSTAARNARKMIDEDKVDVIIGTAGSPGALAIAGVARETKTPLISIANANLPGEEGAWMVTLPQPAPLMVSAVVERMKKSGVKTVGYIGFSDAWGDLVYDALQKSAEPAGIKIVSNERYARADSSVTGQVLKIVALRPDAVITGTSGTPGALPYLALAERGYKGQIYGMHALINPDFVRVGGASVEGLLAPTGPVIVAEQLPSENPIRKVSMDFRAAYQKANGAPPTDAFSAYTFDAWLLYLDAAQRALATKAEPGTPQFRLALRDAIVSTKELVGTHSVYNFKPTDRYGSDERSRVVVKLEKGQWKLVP
Assay: isothermal titration calorimetry
Type: binding

O=C(O)Cc1c[nH]c2cccc(Cl)c12 [4-Cl-IAA]
Kd: 8.4 µM

O=C(O)CCCc1c[nH]c2ccccc12 [IBA]
Kd: 25 µM

O=C(O)Cc1cccc2ccccc12 [NAA]
Kd: 20 µM

O=C(O)CCc1c[nH]c2ccccc12 [IPA]
Kd: 1.6 µM
